Assay results taken from US20200121677A1, “SUBSTITUTED 6,7-DIHYDROPYRAZOLO[1,5-a]PYRAZINES AS NEGATIVE ALLOSTERIC MODULATORS OF MGLUR2 RECEPTORS” (Janssen Pharmaceutica NV, priority 2014, published 2020).

Tests used:
[1] = system: Male Wiga Wistar rats; experiment: Reversal of LY-404039-induced decrease of palpebral opening in apomorphine-challenged rats; format: in vivo, rat; conditions: for ED50: Rattus norvegicus, rats, route PO (route cell empty for Co. 88 and 84), read-out: ED50 APO LY-404039 (Reversal of LY-404039-induced decrease of palpebral opening in apomorphine challenged rats)
Procedure: 1) Reversal of LY-404039-Induced Decrease of Palpebral Opening in Apomorphine-Challenged Rats.
Male Wiga Wistar rats (Crl:WI; Charles River Germany; 220±40 g) were housed under standard laboratory conditions (21±2° C.; 50-65% relative humidity; light-dark cycle set at 12 h; lights on at 6.00 h) and fasted overnight prior to the start of the experiments (tap water remained available ad libitum). During the test period, they were housed in individual cages. Palpebral opening was scored every 5 min over the first hour after injection of apomorphine (1.0 mg/kg, i.v.) in animals either pretreated or not pretreated with LY-404039 (2.5 mg/kg, s.c.) at 1 h prior to the apomorphine injection. The animals were also pretreated with test compound or solvent at a predefined interval before apomorphine challenge. The score system was: (5) exophthalmos, (4) wide open, (3) open for three-quarters, (2) half open, (1) open for one-quarter, (0) closed. The scores for palpebral opening were cumulated over the 60-min observation period.

[2] = system: rats; experiment: Reversal of the effect of the mGluR2 PAM JNJ-42153605-induced inhibition of scopolamine-induced hyperlocomotion; format: in vivo, rat; conditions: rats, route PO, criterion total distance >1500 cm; for ED50: Rattus norvegicus, read-out: ED50 SCOP JNJ-42153605 (Reversal of the effect of JNJ 42153605 on scopolamine-induced hyperlocomotion)
Procedure: 2) Reversal of the Effect of the mGluR2 PAM JNJ-42153605-Induced Inhibition of Scopolamine-Induced Hyperlocomotion
Motor activity was measured in microprocessor-based motor activity arenas (closed gray PVC cylinders with a height of 39 cm and a diameter of 31 cm). Each arena was placed on an infrared LED (8×8 LEDs) lit box (white PVC squared box; 40×40 cm^2; height 12.5 cm. An infrared-sensitive tube camera and a white light source were mounted to the ceiling above the observation chamber to track the animal. The total distance traveled (cm) was recorded and analyzed using the Noldus Ethovision XT Video Tracking System (Version 7.0.418; Noldus, Wageningen, The Netherlands). The intensity of the light within the activity cages (measured in the centre at the level of the floor) ranged between 4 and 8 LUX.
The rats were pretreated with test compound or vehicle at 60 min before the start of the activity recordings and placed into individual cages. The rats were challenged with JNJ-42153605 (3-(cyclopropylmethyl)-7-(4-phenylpiperidin-1-yl)-8-(trifluoromethyl)[1,2,4]triazolo[4,3-a]pyridine; WO2010/130424; Cid et al. J. Med. Chem. 2012, 55, 8770-8789) (20 mg/kg, i.v.) 30 min before the start of the activity recording combined with scopolamine (0.16 mg/kg, i.v.) just before the start of the activity measurements. Immediately after the injection of scopolamine, the rats were placed into the activity monitors and total distance traveled over the first 30 min was measured.
For reversal of the inhibitory effect of JNJ-42153605 on the scopolamine-induced hyperlocomotion, the following all-or-none criteria were adopted: (1) reversal: total distance >1500 cm.

[3] = molecular target: human mGlu2 receptor (Homo sapiens, UniProt Q14416); experiment: [35S]GTPγS binding assay, mGluR2 negative allosteric modulation (membranes from CHO cells transfected with human mGlu2 receptor, glutamate ~EC80 60 μM); conditions: for IC50: GTPγS - hmGluR2 anGT pIC50, membranes with human mGlu2 receptor; for Emax: read-out: GTPγS - hmGluR2 anGT Emax, relative maximal effect: maximal % inhibition relative to the control glutamate response;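 as to all read-outs here: membranes preincubated 30 min at 30 °C with compound plus glutamate, then [35S]GTPγS (0.1 nM) incorporation measured over another 30 min at 30 °C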
Procedure: The [^35S]GTPγS binding assay is a functional membrane-based assay used to study G-protein coupled receptor (GPCR) function whereby incorporation of a non-hydrolysable form of GTP, [^35S]GTPγS (guanosine 5′-triphosphate, labelled with gamma-emitting ^35S), is measured. […] Here we describe the use of the [^35S]GTPγS binding assay using membranes from cells transfected with the human mGlu2 receptor and adapted from Schaffhauser et al. (Molecular Pharmacology, 2003, 4:798-810) for the detection of the negative allosteric modulation (NAM) properties of the compounds of this invention.
CHO-cells were cultured to pre-confluence and stimulated with 5 mM butyrate for 24 h. Cells were then collected by scraping in PBS and cell suspension was centrifuged (10 min at 4000 RPM in benchtop centrifuge). Supernatant was discarded and pellet gently resuspended in 50 mM Tris-HCl, pH 7.4 by mixing with an Ultra Turrax homogenizer. The suspension was centrifuged at 12,400 RPM (Sorvall F14S-6x250Y) for 10 minutes and the supernatant discarded. The pellet was homogenized in 5 mM Tris-HCl, pH 7.4 using an Ultra Turrax homogenizer and centrifuged again (13,000 RPM, 20 min, 4° C.). The final pellet was resuspended in 50 mM Tris-HCl, pH 7.4 and stored at −80° C. in appropriate aliquots before use. Protein concentration was determined by the Bradford method (Bio-Rad, USA) with bovine serum albumin as standard.
Measurement of mGluR2 negative allosteric modulatory activity of test compounds was performed as follows. Test compounds and glutamate were diluted in assay buffer containing 10 mM HEPES acid, 10 mM HEPES salt, pH 7.4, 100 mM NaCl, 3 mM MgCl2 and 10 μM GDP. Human mGlu2 receptor-containing membranes were thawed on ice and diluted in assay buffer supplemented with 18 μg/ml saponin. Membranes were pre-incubated with compound together with a predefined (˜EC80) concentration of glutamate (60 μM) for 30 min at 30° C. After addition of [^35S]GTPγS (f.c. 0.1 nM), assay mixtures were shaken briefly and further incubated to allow [^35S]GTPγS incorporation on activation (30 minutes, 30° C.). Final assay mixtures contained 7 μg of membrane protein in 10 mM HEPES acid, 10 mM HEPES salt, pH 7.4, 100 mM NaCl, 3 mM MgCl2, 10 μM GDP and 10 μg/ml saponin. Total reaction volume was 200 μl. Reactions were terminated by rapid filtration through Unifilter-96 GF/B plates (Perkin Elmer, Massachusetts, USA) using a 96-well filtermate universal harvester. Filters were washed 6 times with ice-cold 10 mM NaH2PO4/10 mM Na2HPO4, pH 7.4. Filters were then air-dried, and 30 μl of liquid scintillation cocktail (Microscint-O) was added to each well. Membrane-bound radioactivity was counted in a Topcount.
Data were calculated as % of the control glutamate response, defined as the response that is generated upon addition of an EC80-equivalent concentration of glutamate.

[4] = glutamate ~EC80 (60 μM), pIC50 = -log IC50 (M)

Chain of human mGlu2 receptor (Q14416 19-872): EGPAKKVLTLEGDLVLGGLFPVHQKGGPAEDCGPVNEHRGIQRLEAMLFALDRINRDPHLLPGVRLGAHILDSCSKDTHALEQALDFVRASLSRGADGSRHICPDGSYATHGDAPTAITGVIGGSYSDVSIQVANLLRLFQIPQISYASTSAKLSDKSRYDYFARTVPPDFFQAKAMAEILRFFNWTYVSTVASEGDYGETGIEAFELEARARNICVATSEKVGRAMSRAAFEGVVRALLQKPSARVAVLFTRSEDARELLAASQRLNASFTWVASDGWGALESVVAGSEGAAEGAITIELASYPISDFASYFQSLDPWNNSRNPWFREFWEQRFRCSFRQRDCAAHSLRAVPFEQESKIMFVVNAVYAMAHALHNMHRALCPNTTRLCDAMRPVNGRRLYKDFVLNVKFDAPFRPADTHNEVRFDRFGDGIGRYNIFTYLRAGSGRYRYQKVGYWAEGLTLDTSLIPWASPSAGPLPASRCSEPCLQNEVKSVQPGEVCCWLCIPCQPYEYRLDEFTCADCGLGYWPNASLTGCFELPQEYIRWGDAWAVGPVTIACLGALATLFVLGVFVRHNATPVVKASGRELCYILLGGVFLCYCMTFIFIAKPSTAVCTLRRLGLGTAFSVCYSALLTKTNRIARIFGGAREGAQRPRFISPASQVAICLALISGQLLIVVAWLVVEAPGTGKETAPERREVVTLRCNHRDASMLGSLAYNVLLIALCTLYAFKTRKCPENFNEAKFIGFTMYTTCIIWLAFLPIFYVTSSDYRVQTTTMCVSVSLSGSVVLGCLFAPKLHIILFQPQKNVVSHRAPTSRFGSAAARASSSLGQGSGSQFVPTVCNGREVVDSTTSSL

Row | Compound | IC50 [3, 4] [M] | Emax [3] [%] | melting point [°C] | GTPγS - hmGluR2 anGT pIC50 ([3]; membranes with human mGlu2 receptor, glutamate ~EC80 (60 μM), pIC50 = -log IC50 (M)) | GTPγS - hmGluR2 anGT Emax ([3]; relative maximal effect: maximal % inhibition relative to the control glutamate response) [%] | Palpebral opening score, Occurrence score > 26 (%) ([1]; control animals, scores cumulated over 60 min after apomorphine 1.0 mg/kg i.v., LY-404039 2.5 mg/kg s.c. 1 h before apomorphine) | ED50 [2] [mg/kg] | ED50 [1] [mg/kg] | ED50 SCOP JNJ-42153605 (Reversal of the effect of JNJ 42153605 on scopolamine-induced hyperlocomotion) [2] [mg/kg]
1 | N[C@@]1(C(=O)O)CS(=O)(=O)[C@H]2[C@H](C(=O)O)[C@H]21 [LY-404039, reference compound] | – | – | – | – | – | 3.2 | – | – | –
2 | C[C@H]1CN(c2ccc(C(F)(F)F)cc2)C(=O)c2c(C(=O)Nc3ccncc3)cnn21 [compound 3] | 2.09e-09 | 116 | 160.2 | – | – | – | 0.08 | – | –
3 | C[C@H]1CN(c2ccc(C(F)(F)F)cc2)C(=O)c2c(C(=O)Nc3ccncc3F)cnn21 [compound 4] | 3.02e-09 | 117 | 189 | – | – | – | 1.01 | – | –
4 | C[C@H]1CN(c2ccc(C(F)(F)F)cc2)C(=O)c2c(C(=O)Nc3cncc(F)c3)cnn21 [compound 13] | 2.24e-09 | 110 | 196.7 | – | – | – | 0.32 | 0.32 | –
5 | Cc1cc(NC(=O)c2cnn3c2C(=O)N(c2ccc(Cl)c(OC(F)F)c2)C[C@@H]3C)ccn1 [compound 84, (7S)-5-[4-chloro-3-(difluoromethoxy)phenyl]-7-methyl-N-(2-methyl-4-pyridyl)-4-oxo-6,7-dihydropyrazolo[1,5-a]pyrazine-3-carboxamide] | 7.41e-09 | 112 | 196.7 | – | – | – | – | > 2.5 | –
6 | Cc1cc(NC(=O)c2cnn3c2C(=O)N(c2ccc(C(F)(F)F)c(C)c2)C[C@@H]3C)ccn1 [compound 86] | 2.29e-09 | 105 | 121.8 | – | – | – | 1.26 | – | –
7 | Cc1cc(NC(=O)c2cnn3c2C(=O)N(c2ccc(C(F)(F)F)cn2)C[C@@H]3C)ccn1 [compound 88] | 8.51e-09 | 106 | 244.9 | – | – | – | – | > 2.5 | –
8 | Cc1cc(NC(=O)c2cnn3c2C(=O)N(c2ccc(Cl)cc2)C[C@@H]3C)ccn1 [compound 89] | 1.05e-08 | 107 | 171.4 | – | – | – | > 2.5 | – | –
9 | C[C@H]1CN(c2ccc(Cl)c(Cl)c2)C(=O)c2c(C(=O)Nc3ccc(F)cn3)cnn21 [compound 98, (7S)-5-(3,4-Dichlorophenyl)-N-(5-fluoro-2-pyridyl)-7-methyl-4-oxo-6,7-dihydropyrazolo[1,5-a]pyrazine-3-carboxamide] | 3.63e-09 | 107 | 179.56 | – | – | – | > 0.63 | – | –
10 | C[C@H]1CN(c2ccc(C(F)(F)F)cc2)C(=O)c2c(C(=O)Nc3ccc(F)cn3)cnn21 [compound 104] | 8.13e-09 | 108 | 184.48 | – | – | – | > 0.63 | – | –
11 | C[C@H]1CN(c2ccc(C(F)(F)F)c(Cl)c2)C(=O)c2c(C(=O)Nc3cnccn3)cnn21 [compound 106] | 1.15e-09 | 111 | – | – | – | – | 0.32 | – | –
12 | Cc1cc(NC(=O)c2cnn3c2C(=O)N(c2ccc(C(F)(F)F)c(Cl)c2)C[C@@H]3C)cc(C)n1 [compound 107] | 1.48e-09 | 107 | – | – | – | – | > 0.63 | > 0.63 | –
13 | C[C@H]1CN(c2ccc(C(F)(F)F)c(Cl)c2)C(=O)c2c(C(=O)Nc3ccc(F)cn3)cnn21 [compound 108] | 2.82e-09 | 104 | 212.88 | – | – | – | > 0.63 | – | –
14 | Cc1cc(N2C[C@H](C)n3ncc(C(=O)Nc4ccc(F)cn4)c3C2=O)ccc1C(F)(F)F [compound 110] | – | – | – | 8.3 | 107 | – | – | – | >0.63
15 | Cc1cc(NC(=O)c2cnn3c2C(=O)N(c2ccc(C(F)(F)F)c(C)c2)C[C@@H]3C)cc(C)n1 [compound 111] | 1.45e-09 | 109 | 161.92 | – | – | – | 0.32 | – | –
16 | Cc1c(F)cncc1NC(=O)c1cnn2c1C(=O)N(c1ccc(C(F)(F)F)c(Cl)c1)C[C@@H]2C [compound 133, (7S)-5-[3-chloro-4-(trifluoromethyl)phenyl]-N-(5-fluoro-4-methyl-3-pyridyl)-7-methyl-4-oxo-6,7-dihydropyrazolo[1,5-a]pyrazine-3-carboxamide] | 9.12e-10 | 105 | 167.78 | – | – | – | > 0.63 | – | –
17 | C[C@H]1CN(c2ccc(C(F)(F)F)cc2)C(=O)c2c(C(=O)Nc3ccncn3)cnn21 [compound 141] | 8.32e-09 | 113 | 224.9 | – | – | – | > 2.5 | – | –
18 | C[C@H]1CN(c2ccc(C(F)(F)F)cc2)C(=O)c2c(C(=O)Nc3cnccc3CO)cnn21 [compound 147] | 5.37e-08 | 103 | 212.57 | – | – | – | > 0.63 | – | –
19 | C[C@H]1CN(c2ccc(C(F)(F)F)cc2)C(=O)c2c(C(=O)Nc3ccnc(CF)c3)cnn21 [compound 151] | 2.69e-09 | 115 | 152.64 | – | – | – | > 0.63 | – | –
20 | C[C@H]1CN(c2ccc(OC(F)(F)F)c(Cl)c2)C(=O)c2c(C(=O)Nc3cccnc3)cnn21 [compound 152] | 1.05e-09 | 108 | 145.36 | – | – | – | 0.08 | – | –

The remaining molecules from weak to strong by IC50 [3, 4], led by results:

Row | IC50 [3, 4] [M] | Emax [3] [%] | melting point [°C] | GTPγS - hmGluR2 anGT pIC50 ([3]; membranes with human mGlu2 receptor, glutamate ~EC80 (60 μM), pIC50 = -log IC50 (M)) | GTPγS - hmGluR2 anGT Emax ([3]; relative maximal effect: maximal % inhibition relative to the control glutamate response) [%] | Compound | Palpebral opening score, Occurrence score > 26 (%) ([1]; control animals, scores cumulated over 60 min after apomorphine 1.0 mg/kg i.v., LY-404039 2.5 mg/kg s.c. 1 h before apomorphine) | ED50 [2] [mg/kg] | ED50 [1] [mg/kg] | ED50 SCOP JNJ-42153605 (Reversal of the effect of JNJ 42153605 on scopolamine-induced hyperlocomotion) [2] [mg/kg]
21 | 1.35e-08 | 106 | 183.36 | – | – | C[C@H]1CN(c2ccc(C(F)(F)F)c(F)c2)C(=O)c2c(C(=O)Nc3ccc(F)cn3)cnn21 [compound 78] | – | > 0.63 | – | –
22 | 9.33e-09 | 111 | 246.7 | – | – | C[C@H]1CN(c2ccc(C(F)(F)F)cc2)C(=O)c2c(C(=O)Nc3nccs3)cnn21 [compound 140] | – | > 2.5 | – | –
23 | 4.68e-09 | 103 | 185.3 | – | – | C[C@H]1CN(c2ccc(C(F)(F)F)cc2)C(=O)c2c(C(=O)Nc3ccc(F)cc3)cnn21 [compound 7] | – | > 2.5 | – | –
24 | 4.07e-09 | 108 | 185.94 | – | – | COc1cncc(NC(=O)c2cnn3c2C(=O)N(c2ccc(C(F)(F)F)c(Cl)c2)C[C@@H]3C)c1C [compound 127] | – | > 0.63 | – | –
25 | 3.72e-09 | 111 | 216.6 | – | – | COc1cc(N2C[C@H](C)n3ncc(C(=O)Nc4cncc(C)c4)c3C2=O)ccc1C(F)(F)F [compound 33] | – | > 0.63 | – | –
26 | 3.55e-09 | 112 | 178.1 | – | – | Cc1cc(NC(=O)c2cnn3c2C(=O)N(c2ccc(Cl)c(C)c2)C[C@@H]3C)cc(C)n1 [compound 160] | – | > 0.63 | – | –
27 | 3.47e-09 | 111 | 243.4 | – | – | COc1cc(N2C[C@H](C)n3ncc(C(=O)Nc4cnccc4C)c3C2=O)ccc1C(F)(F)F [compound 32] | – | > 0.63 | – | –
28 | 2.82e-09 | 108 | 233.4 | – | – | Cc1cc(N2C[C@H](C)n3ncc(C(=O)Nc4cnccn4)c3C2=O)ccc1Cl [compound 161] | – | > 0.63 | – | –
29 | 2.63e-09 | 104 | 181.5 | – | – | C[C@H]1CN(c2ccc(C(F)(F)F)cc2)C(=O)c2c(C(=O)Nc3ccc(N)nc3)cnn21 [compound 19] | – | 0.79 | – | –
30 | 1.12e-09 | 106 | – | – | – | Cc1cc(N2C[C@H](C)n3ncc(C(=O)Nc4cnccn4)c3C2=O)ccc1C(F)(F)F [compound 112] | – | 0.2 | – | –
